{
  "source": "patent US9951226B2",
  "about": "“Compound based on cyanine scaffold for diagnosis sepsis by selectively detect glutathione” (EWHA UNIVERSITY—INDUSTRY COLLABORATION FOUNDATION, priority 2014, dated 2018)",
  "key": {"RAW 264.7 cells": {"test_system": "RAW 264.7 cells", "assay": "Changes of glutathione concentration in the presence of an oxidant (peroxynitrite), RAW 264.7 cells", "format": "cell-based", "details": "for red fluorescence under confocal laser scanning microscope: 20 μM compound", "method": "RAW 264.7 cells (macrophage cell line, Korea Cell Line Bank) were cultured in RPMI 1640 (Roswell Park Memorial Institute) supplemented with 10% heat-inactivated fetal bovine serum (FBS), 100 U/mL penicillin, and 100 U/mL streptomycin in a 37° C. 5% CO2 incubator.\nRAW 264.7 cells displaying the characteristics of generating ROS (Reactive Oxygen Species) or RNS (Reactive Nitrogen Species) were treated with 1 μg/mL of lipopolysaccharide (LPS) for 20 minutes, 50 ng/mL of interferon-γ for 16 hours, and 20 μM of phorbol 12-myristate 13-acetate (PMA) for 20 minutes in order to induce the generation of endogenous feroxynitrite having the characteristics of an oxidant. Then, the cells were seeded in 35-mm glass bottomed dishes at the density of 3×10^5 cells/dish in 1640 medium. 24 hours later, the compound prepared in Example 2 was treated thereto at the concentration of 20 μM for 20 minutes. The cells were washed with DPBS (Dulbecco's Phosphate Buffered Saline) three times, followed by imaging with confocal laser scanning microscope (Fluoview 1200, Olympus, Japan). At this time, the emitting filter with the excitation wavelength of 635 nm and the band-path (BP) of 655˜755 nm was used."}, "neutrophils": {"test_system": "neutrophils", "assay": "Capacity of diagnosing sepsis: bone marrow neutrophils infected with GFP tagged Pseudomonas Aeruginosa 01 (PA01)", "format": "cell-based, mouse", "method": "Neutrophils were extracted from the bone marrow of C57BL/6 mouse (7˜8 weeks old, female, Jackson Laboratory). The cells were infected with green fluorescent protein (GFP) tagged Pseudomonas Aeruginosa 01 (PA01) that is the causing bacteria of sepsis. 24 hours later, 10 μM of the compound prepared in Example 2 was added thereto, followed by reaction at 37° C. for 20 minutes. At this time, the emitting filter with the excitation wavelength of 635 nm and the band-path (BP) of 655˜755 nm was used."}, "HeLa cells [1]": {"test_system": "HeLa cells", "assay": "Changes of glutathione concentration in the presence of an oxidant (H2O2), HeLa cells", "format": "cell-based, human", "method": "100 μM of H2O2, the oxidant, was treated to HeLa cells prepared in Experimental Example 2 containing glutathione, the anti-oxidant, at 37° C. for 30 minutes to induce the changes of glutathione level. 20 μM of the compound prepared in Example 2 was added thereto, followed by culture at 37° C. for 20 minutes. The cells were washed with DPBS (Dulbecco's Phosphate Buffered Saline) three times to eliminate the remaining compound, followed by imaging with confocal laser scanning microscope (Fluoview 1200, Olympus, Japan). At this time, the emitting filter with the excitation wavelength of 635 nm and the band-path (BP) of 655˜755 nm was used."}, "[2]": {"assay": "Absorption and fluorescence spectrum according to the concentration of glutathione", "format": "biochemical", "method": "(§1) 10 μM of the compound prepared in Example 2 and glutathione were added to HEPES (4-(2-hydroxyethyl)piperazine-1-ethanesulfonic acid) buffer (10 mM, pH=7.4) containing 10% dimethylsulfoxide (DMSO) with raising slowly the concentration of glutathione from 0 to 50 μM, during which the changes of absorption spectrum were observed using UV-vis sepctra (Scinco 3000 spectrophotometer, 1 cm quartz cell) at 25° C.\n(§2) The following experiment was performed by the same manner as described in Experimental Example <4-1> except that fluorescence spectrum was observed by using RF-5310/PC fluorescence spectrometer (Shimada, 1 cm quartz cell) instead of observing absorption spectrum via UV-vis sepctra (Scinco 3000 spectrophotometer, 1 cm quartz cell) (λex=730 nm, λem=736 nm, slit:10/10 nm).\nas §1, with “Example 3” for “Example 2”, “to 100” for “to 50”\nas §2, with “<16-1>” for “<4-1>”"}, "HeLa cells [3]": {"test_system": "HeLa cells", "assay": "Detection of intracellular biothiol in HeLa cells, confocal laser scanning microscope", "format": "cell-based, human", "details": "10 μM compound", "method": "HeLa cells (human adenocarcinoma cells, Korea Cell Line Bank) were cultured in RPMI 1640 (Roswell Park Memorial Institute) supplemented with 10% heat-inactivated fetal bovine serum (FBS), 100 U/mL penicillin, and 100 U/mL streptomycin in a 37° C. 5% CO2 incubator. The cells were either treated or not treated with 1 mM of N-methylmaleimide (NMM) known as a thiol blocker for 20 minutes. 100 μM of each amino acid containing thiol group (R—SH) such as cysteine, homocysteine, and glutathione was added thereto. Then, the cells were seeded in 35-mm glass bottomed dishes at the density of 3×10^5 cells/dish in 1640 medium. 24 hours later, 10 μM of the compound prepared in Example 1 was added thereto, followed by culture at 37° C. for 20 minutes. The cells were washed with DPBS (Dulbecco's Phosphate Buffered Saline) twice to eliminate the remaining compound, followed by imaging with confocal laser scanning microscope (Fluoview 1200, Olympus, Japan). At this time, the emitting filter with the excitation wavelength of 635 nm and the band-path (BP) of 655˜755 nm was used."}, "[4]": {"details": "10 μM compound, glutathione not added"}, "[5]": {"details": "10 μM compound, glutathione raised from 0 to 50 μM"}},
  "data": [
    {"smiles": "CCCN1/C(=C/C=C2\\CCCC(/C=C/C3=[N+](CCC)c4ccccc4C3(C)C)=C2N2CCN(S(=O)(=O)c3cccc4c(N(C)C)cccc34)CC2)C(C)(C)c2ccccc21.[I-]", "note": "[Example 2, 2-((E)-2-((E)-3-((E)-2-(3,3-dimethyl-1-propylindolin-2-ylidene)ethylidene)-2-(4-(5-(dimethylamino)naphthalene-1-ylsulfonyl)piperazine-1-yl)cyclohex-1-enyl)binyl)-3,3-dimethyl-1-propyl-3H-indolium iodide]", "values": [
      {"measurement": "red fluorescence under confocal laser scanning microscope", "setting": "RAW 264.7 cells; RAW 264.7 cells with induced peroxynitrite (LPS, interferon-γ, PMA)", "result": "red fluorescence was not observed"},
      {"measurement": "red fluorescence under confocal laser scanning microscope", "setting": "RAW 264.7 cells; RAW 264.7 cells, 20 minutes", "result": "strong red fluorescence"},
      {"measurement": "reaction to oxidized glutathione, glutathione disulfide (GSSG)", "setting": "RAW 264.7 cells; RAW 264.7 cells, peroxynitrite", "result": "did not react"},
      {"measurement": "red fluorescence indicating glutathione level in the red fluorescence channel", "setting": "neutrophils; neutrophils infected with GFP tagged PA01, 10 μM compound", "result": "reduced"},
      {"measurement": "red fluorescence in the red fluorescent channel", "setting": "neutrophils; neutrophils not-infected with GFP tagged PA01, 10 μM compound", "result": "strong red fluorescence was detected"},
      {"measurement": "red fluorescence under confocal laser scanning microscope", "setting": "HeLa cells [1]; HeLa cells pre-treated with 100 μM H2O2, 20 μM compound", "result": "red fluorescence was not observed"},
      {"measurement": "red fluorescence under confocal laser scanning microscope", "setting": "HeLa cells [1]; HeLa cells, 20 μM compound, 20 minutes", "result": "strong red fluorescence"},
      {"measurement": "reaction to oxidized glutathione, glutathione disulfide (GSSG)", "setting": "HeLa cells [1]; HeLa cells, H2O2", "result": "did not react"},
      {"measurement": "absorption strength at 750 nm", "setting": "[2]; [4]", "result": "weak absorption strength"},
      {"measurement": "fluorescence signal at 736 nm", "setting": "[2]; [4]", "result": "weak fluorescence signal"},
      {"measurement": "absorption signal at 750 nm", "setting": "[2]; [5]", "result": "getting stronger"},
      {"measurement": "fluorescence signal at 736 nm", "setting": "[2]; [5]", "result": "getting stronger"},
      {"measurement": "dependence of the reaction on glutathione concentration", "setting": "[2]; conclusion from absorption and fluorescence spectra", "result": "glutathione dose-dependent"},
      {"measurement": "red fluorescence under confocal laser scanning microscope", "setting": "HeLa cells [3]; HeLa cells pre-treated with NMM, 100 μM cysteine added", "result": "red fluorescence was not detected"},
      {"measurement": "red fluorescence under confocal laser scanning microscope", "setting": "HeLa cells [3]; HeLa cells pre-treated with NMM, 100 μM glutathione added", "result": "strong red fluorescence was observed"},
      {"measurement": "red fluorescence under confocal laser scanning microscope", "setting": "HeLa cells [3]; HeLa cells pre-treated with NMM, 100 μM homocysteine added", "result": "red fluorescence was not detected"},
      {"measurement": "red fluorescence under confocal laser scanning microscope", "setting": "HeLa cells [3]; HeLa cells pre-treated with thiol blocker NMM 1 mM", "result": "red fluorescence was not observed"},
      {"measurement": "red fluorescence under confocal laser scanning microscope", "setting": "HeLa cells [3]; HeLa cells, 20 minutes", "result": "strong red fluorescence was observed"}
    ]}
  ]
}
